Results: PMC3408453, “A Foldamer-Dendrimer Conjugate Neutralizes Synaptotoxic β-Amyloid Oligomers” (PLoS ONE, 2012)
“Also recorded” adds a separate entry of the source. Like-named read-outs stand apart in the source and are kept apart here. Ends that are not written are not given here.

Experiments:
Aβ oligomers [1] = biological target: T1, Aβ oligomers (Homo sapiens, UniProt P05067); assay: Isothermal titration calorimetry (ITC) with Aβ oligomers; assay type: binding
T1 construct: a depsipeptide derivative of Aβ(1–42) was utilized; made in house; host or cells: chemical peptide synthesis (no expression host)
Procedure: (§1) Binding of 7 to the Aβ oligomers was monitored by means of isothermal titration calorimetry (ITC). […] The titrations were run at 288 K in order to improve the signal to noise ratio, and just above the precipitation limit as the ITC method is sensitive to the thermal noise caused by the stirring of large particles. […] These values strongly supported tight binding between the Aβ oligomer species and 7.
Isothermal titrations were performed with a Microcal VP-ITC microcalorimeter. The binding experiments were performed in PBS pH 7.4. The buffer solution was degassed. The concentrations of the ligands and Aβ were corrected for the material content. In individual titrations, 10 μL of ligand was injected from the computer-controlled 300-μL microsyringe at intervals of 300 s into the Aβ oligomer solution dissolved in the same buffer as the ligand. The microsyringe stirring was set to 295 rpm. All measurements were made at 288 K. The Aβ concentrations in the cell were either 72 μM or 36 μM, and the concentrations of 7 were 175 μM and 222 μM respectively. The total ligand concentration was set in the syringe so that the titration stopped when the precipitation became excessive. Control experiments were performed by injecting the ligand into a cell containing buffer with no target, and the heats of dilution were subtracted from those measured in the presence of Aβ. Titrations were also performed with buffer in the syringe and Aβ oligomer sample in the cell to check for the heat response of Aβ dilution itself. The dilution heat of the Aβ oligomer samples was constant and negligible. Since the target is inherently inhomogeneous, and an a priori model of the binding events is not available,. the experimental data were fitted to the two independent site binding model by using a nonlinear least-squares procedure, with ΔHb, ΔHb', Ka, Ka' (association constants), N and N' (number of binding sites for monomer), as adjustable parameters. The exothermic peaks appearing after the fully precipitated phase was reached, were omitted from the regression.

[2] = tested on: LTP in mouse hippocampal slices impaired by Aβ(1–42) oligomers; assay: Ex vivo hippocampal slice LTP electrophysiology; assay type: cell-based
From the text: We investigated whether 7 could protect against the synaptic plasticity damage caused by Aβ(1–42) oligomers by using a hippocampus slice LTP model. LTP, a correlate of learning and memory has been repeatedly shown to be impaired by Aβ(1–42) oligomers. As negative control, substance 11 was applied. The experimenters were blind to the compounds tested.
These observations indicate the significant protective effect of 7 (Figure 12D). To test the effects of valency, LTP experiments were repeated with 8 under the same conditions.
Via standard procedures, 350-µm-thick transverse hippocampal slices were prepared from the brain of 7-months-old mice (CD1, Animal Breeding Facility, University of Szeged) with a McIlwain tissue chopper (Campden Instruments, Loughborough, UK). Slices were incubated in standard artificial cerebrospinal fluid (ACSF) at ambient temperature for 60 min, during constant gassing with 95% O2–5% CO2. The ACSF contained (mM): NaCl, 130; KCl, 3.5; CaCl2, 2; MgCl2, 2; NaH2PO4, 0.96; NaHCO3, 24; and D-glucose, 10 (pH 7.4). Individual slices were transferred to a 3D-MEA chip with 60 tip-shaped and 60-μm-high electrodes spaced at 100 μm (Ayanda Biosystems, S.A., Lausanne, Switzerland). The slice was continuously perfused with oxygenated ACSF (1.5 ml min^−1 at 34 °C) containing 720 nM Aβ(1–42) oligomers and/or 950 nM ligand throughout the recording session. Data were recorded with a standard, commercially available MEA setup (Multi Channel Systems MCS GmbH, Reutlingen, Germany). The Schaffer-collateral was stimulated by injecting a biphasic current waveform (−100/+100 μs) through one selected electrode at 0.033 Hz. Care was taken to choose the stimulating electrode in the same region from one slice to the other. The peak-to-peak amplitudes of fEPSPs at the stratum pyramidale and stratum radiatum of CA1 were analyzed. After a 30-min incubation period, the threshold and the maximum of stimulation intensity for evoke responses was determined. To evoke responses, 30% of the maximal stimulation intensity was used. LTP was induced by applying a theta-burst stimulation (TBS) pattern at the maximal stimulation intensity. The TBS comprised four trains administered at 20-s intervals with 10 bursts given at 5 Hz per train and 4 pulses at 100 Hz per burst. Statistical analysis was carried out by using two-tailed Student's t-test. For representative raw data see Figure S12.

Aβ oligomers [3] = biological target: T1, Aβ oligomers; assay: Ligand-induced precipitation during ITC titration, followed by DLS; conditions: 72 μM Aβ oligomer
Procedure: as §1
For DLS measurements, 500 µL Aβ(1–42) solution (c = 72 µM) was prepared in PBS, and placed in a low–volume sizing cell. Size distribution was measured at 25°C on a Malvern Zetasizer Nano ZS Instrument (Malvern Instruments Ltd. Worcestershire, UK) equipped with a He-Ne laser (633 nm) by means of Non-Invasive Back Scatter (NIBS®) technology, which involves detection of the scattered light at an angle of 173°. A titration routine was formulated consisting of 12 independent measurements with a 2-min delay after each. The calculated amount of 7 solution was added to the Aβ after every second measurement. During the titration, the molar quantity of 7 varied between 0–35 µM. For a single measurement, the correlation function and distribution of the apparent hydrodynamic diameter (dh) over the scattered intensity of the particles were determined on the basis of 14 scans. […]

[4] = 72 μM Aβ oligomer in cell, 288 K, PBS pH 7.4, read-out: KD (ITC; first binding step for 7, single stage for the others)
[5] = read-out: KD (ITC), given as bound, 72 μM Aβ oligomer, 288 K
[6] = read-out: KD (ITC; first binding step for 7, single stage for the others), 72 μM Aβ oligomer in cell, 288 K, PBS pH 7.4

Molecule	Tight binding to the Aβ oligomer species in ITC (in words) (Aβ oligomers [1]; 72 μM Aβ oligomer)	Kd (Aβ oligomers [1]; [4])	N (ITC stoichiometry, number of binding sites for monomer; first or single stage) (Aβ oligomers [1]; 72 μM Aβ oligomer, 288 K)	Kd (Aβ oligomers [1]; [5])	Kd (Aβ oligomers [1]; [6])	other results
11: 6 coupled to the G0-PAMAM template; negative control with Gly7 tentacles (GGGGGGGC-NH2; not fully specified (residue 8); also: coupled to tetravalent G0-PAMAM template) [Compound 11]	the curve fitting did not converge; also recorded: did not reveal any tight binding	–	–	–	–	LTP (potentiation) with Aβ(1–42) oligomers and ligand together ([2]; 720 nM Aβ(1–42) oligomers + 950 nM ligand, 180 min after LTP induction, mean ±SEM): 130±3%; LTP (potentiation) with ligand alone ([2]; 950 nM ligand, no Aβ oligomers, mean ±SEM): 200±14%
N=C(N)NCCC[C@@H](CC(=O)N[C@H]1CCCC[C@@H]1C(=O)N[C@H]1CCCC[C@@H]1C(=O)N[C@@H](CC(=O)O)CC(=O)N[C@H]1CCCC[C@@H]1C(N)=O)NC(=O)[C@H]1CCCC[C@@H]1N [Compound 1]	–	2380 ± 214 nM	–	–	–	Kd (Aβ oligomers [1]; 72 μM Aβ oligomer, 288 K, read-out: KD (ITC), given as bound): > 2000 nM
N=C(N)NCCC[C@@H](CC(=O)N[C@H]1CCCC[C@@H]1C(=O)N[C@H]1CCCC[C@@H]1C(=O)N[C@@H](CC(=O)O)CC(=O)N[C@H]1CCCC[C@@H]1C(=O)NCC(=O)NCC(=O)N[C@@H](CSC1CC(=O)N(CCCCN2C(=O)CC(SC[C@H](NC(=O)CNC(=O)CNC(=O)[C@H]3CCCC[C@@H]3NC(=O)C[C@H](CC(=O)O)NC(=O)[C@H]3CCCC[C@@H]3NC(=O)[C@H]3CCCC[C@@H]3NC(=O)C[C@H](CCCNC(=N)N)NC(=O)[C@H]3CCCC[C@@H]3N)C(N)=O)C2=O)C1=O)C(N)=O)NC(=O)[C@H]1CCCC[C@@H]1N (stereo partly drawn) [Compound 8]	–	721 ± 120 nM	–	–	–	ΔHb (ITC; first binding step for 7, single stage for 8) (Aβ oligomers [1]; 72 μM Aβ oligomer, 288 K): 1.1 ± 0.12 kcal/mol; Rescue of LTP from toxic Aβ oligomers (in words) ([2]; 720 nM Aβ(1–42) oligomers + 950 nM ligand): No rescue from the toxic Aβ oligomers was observed; Concentration-dependent precipitation of Aβ oligomers during titration (ITC/DLS) (Aβ oligomers [3]): Neither 8 nor 1 led to concentration-dependent precipitation
NC(=O)[C@H](CSC1CC(=O)N(CCC(=O)NCCNC(=O)CCN(CCC(=O)NCCNC(=O)CCN2C(=O)CC(SC[C@H](NC(=O)CNC(=O)CNC(=O)[C@H]3CCCC[C@@H]3NC(=O)C[C@H](CO)NC(=O)[C@H]3CCCC[C@@H]3NC(=O)[C@H]3CCCC[C@@H]3NC(=O)C[C@H](CO)NC(=O)[C@H]3CCCC[C@@H]3N)C(N)=O)C2=O)CCN(CCC(=O)NCCNC(=O)CCN2C(=O)CC(SC[C@H](NC(=O)CNC(=O)CNC(=O)[C@H]3CCCC[C@@H]3NC(=O)C[C@H](CO)NC(=O)[C@H]3CCCC[C@@H]3NC(=O)[C@H]3CCCC[C@@H]3NC(=O)C[C@H](CO)NC(=O)[C@H]3CCCC[C@@H]3N)C(N)=O)C2=O)CCC(=O)NCCNC(=O)CCN2C(=O)CC(SC[C@H](NC(=O)CNC(=O)CNC(=O)[C@H]3CCCC[C@@H]3NC(=O)C[C@H](CO)NC(=O)[C@H]3CCCC[C@@H]3NC(=O)[C@H]3CCCC[C@@H]3NC(=O)C[C@H](CO)NC(=O)[C@H]3CCCC[C@@H]3N)C(N)=O)C2=O)C1=O)NC(=O)CNC(=O)CNC(=O)[C@H]1CCCC[C@@H]1NC(=O)C[C@H](CO)NC(=O)[C@H]1CCCC[C@@H]1NC(=O)[C@H]1CCCC[C@@H]1NC(=O)C[C@H](CO)NC(=O)[C@H]1CCCC[C@@H]1N (stereo partly drawn) [Compound 9]	did not reveal any tight binding	–	0.03	> 2000 nM	2240 ± 198 nM	–
N=C(N)NCCC[C@@H](CC(=O)N[C@H]1CCCC[C@@H]1C(=O)N[C@@H](CC(=O)O)CC(=O)N[C@H]1CCCC[C@@H]1C(=O)N[C@H]1CCCC[C@@H]1C(=O)NCC(=O)NCC(=O)N[C@@H](CSC1CC(=O)N(CCC(=O)NCCNC(=O)CCN(CCC(=O)NCCNC(=O)CCN2C(=O)CC(SC[C@H](NC(=O)CNC(=O)CNC(=O)[C@H]3CCCC[C@@H]3NC(=O)[C@H]3CCCC[C@@H]3NC(=O)C[C@H](CC(=O)O)NC(=O)[C@H]3CCCC[C@@H]3NC(=O)C[C@H](CCCNC(=N)N)NC(=O)[C@H]3CCCC[C@@H]3N)C(N)=O)C2=O)CCN(CCC(=O)NCCNC(=O)CCN2C(=O)CC(SC[C@H](NC(=O)CNC(=O)CNC(=O)[C@H]3CCCC[C@@H]3NC(=O)[C@H]3CCCC[C@@H]3NC(=O)C[C@H](CC(=O)O)NC(=O)[C@H]3CCCC[C@@H]3NC(=O)C[C@H](CCCNC(=N)N)NC(=O)[C@H]3CCCC[C@@H]3N)C(N)=O)C2=O)CCC(=O)NCCNC(=O)CCN2C(=O)CC(SC[C@H](NC(=O)CNC(=O)CNC(=O)[C@H]3CCCC[C@@H]3NC(=O)[C@H]3CCCC[C@@H]3NC(=O)C[C@H](CC(=O)O)NC(=O)[C@H]3CCCC[C@@H]3NC(=O)C[C@H](CCCNC(=N)N)NC(=O)[C@H]3CCCC[C@@H]3N)C(N)=O)C2=O)C1=O)C(N)=O)NC(=O)[C@H]1CCCC[C@@H]1N (stereo partly drawn) [Compound 10]	did not reveal any tight binding	–	0.10	> 2000 nM	2750 ± 301 nM	–
Aβ(1–42) oligomer: synaptotoxic Aβ(1–42) oligomers prepared from Ser26 depsipeptide iso-Aβ(1–42) at pH 7.4 [reference compound]	–	–	–	–	–	LTP (potentiation) with Aβ(1–42) oligomer alone ([2]; 720 nM Aβ(1–42) oligomer, untreated slices 175±5%): 128±5%
